In publication PMC8429728, “TNK1 is a ubiquitin-binding and 14-3-3-regulated kinase that can be targeted to block tumor growth” (Nature Communications, 2021):
Values belong to the compound of their own block, whether it stands above or below them.

Experiments:
Experiment in all cases: biochemical
Design in all cases: Reaction Biology kinase panel, control compounds in 10-dose IC50 mode at Km ATP
ARAF = molecular target: T1, ARAF (Homo sapiens, UniProt P10398)
T1 sequence (P10398 1-606): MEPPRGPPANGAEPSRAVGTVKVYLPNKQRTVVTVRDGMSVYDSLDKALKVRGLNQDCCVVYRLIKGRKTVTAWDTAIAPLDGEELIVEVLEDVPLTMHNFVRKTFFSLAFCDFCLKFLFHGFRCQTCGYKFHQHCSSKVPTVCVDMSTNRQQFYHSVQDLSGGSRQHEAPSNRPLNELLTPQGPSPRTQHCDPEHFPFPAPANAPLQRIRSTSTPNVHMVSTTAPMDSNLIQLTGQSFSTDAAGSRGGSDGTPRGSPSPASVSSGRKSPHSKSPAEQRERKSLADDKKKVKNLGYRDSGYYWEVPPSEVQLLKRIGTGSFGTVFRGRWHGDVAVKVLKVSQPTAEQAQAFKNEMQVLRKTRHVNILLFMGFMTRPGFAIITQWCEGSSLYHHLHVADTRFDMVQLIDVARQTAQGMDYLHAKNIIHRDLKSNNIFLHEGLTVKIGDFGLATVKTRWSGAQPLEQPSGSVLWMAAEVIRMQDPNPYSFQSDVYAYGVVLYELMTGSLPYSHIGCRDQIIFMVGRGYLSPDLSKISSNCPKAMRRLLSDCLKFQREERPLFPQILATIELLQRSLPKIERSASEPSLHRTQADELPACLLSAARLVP

CK2a = molecular target: T2, CK2a (Homo sapiens, UniProt P68400)
T2 construct: gene CSNK2A1

ZAK/MLTK = molecular target: T3, ZAK/MLTK (Homo sapiens, UniProt Q9NYL2)
T3 construct: gene MAP3K20

DYRK4 = molecular target: T4, DYRK4 (Homo sapiens, UniProt Q9NR20)
T4 sequence (Q9NR20 1-520): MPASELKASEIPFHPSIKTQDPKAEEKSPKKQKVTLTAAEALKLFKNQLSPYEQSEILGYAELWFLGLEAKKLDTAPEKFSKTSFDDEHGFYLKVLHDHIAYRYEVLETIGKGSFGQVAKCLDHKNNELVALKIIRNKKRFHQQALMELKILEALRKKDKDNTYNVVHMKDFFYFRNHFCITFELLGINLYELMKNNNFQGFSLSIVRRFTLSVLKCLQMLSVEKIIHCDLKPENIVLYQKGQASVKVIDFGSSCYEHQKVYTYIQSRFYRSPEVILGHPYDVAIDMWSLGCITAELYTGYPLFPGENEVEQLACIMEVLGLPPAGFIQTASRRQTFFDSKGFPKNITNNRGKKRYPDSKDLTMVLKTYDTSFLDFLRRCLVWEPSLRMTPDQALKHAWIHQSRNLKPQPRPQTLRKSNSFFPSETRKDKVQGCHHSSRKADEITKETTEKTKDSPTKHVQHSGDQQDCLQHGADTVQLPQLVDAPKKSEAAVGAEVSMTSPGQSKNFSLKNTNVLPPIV

TGFBR2 = TGFBR2 (Homo sapiens, UniProt P37173)
VRK2 = VRK2 (Homo sapiens, UniProt Q86Y07)
LOK/STK10 = LOK/STK10 (Homo sapiens, UniProt O94804)
HIPK1 = HIPK1 (Homo sapiens, UniProt Q86Z02)
HPK1/MAP4K1 = HPK1/MAP4K1 (Homo sapiens, UniProt Q92918)
COT1/MAP3K8 = COT1/MAP3K8 (Homo sapiens, UniProt P41279)
TTBK1 = TTBK1 (Homo sapiens, UniProt Q5TCY1); conditions: control compound, Km ATP; read-out: IC50 (M) Control Cmpd
TTBK2 = TTBK2 (Homo sapiens, UniProt Q6IQ55)
ERK1 = molecular target: T5, ERK1 (Homo sapiens, UniProt P27361)
T5 construct: gene MAPK3

PKMYT1 = molecular target: T6, PKMYT1 (Homo sapiens, UniProt Q99640)
T6 sequence (Q99640 1-499): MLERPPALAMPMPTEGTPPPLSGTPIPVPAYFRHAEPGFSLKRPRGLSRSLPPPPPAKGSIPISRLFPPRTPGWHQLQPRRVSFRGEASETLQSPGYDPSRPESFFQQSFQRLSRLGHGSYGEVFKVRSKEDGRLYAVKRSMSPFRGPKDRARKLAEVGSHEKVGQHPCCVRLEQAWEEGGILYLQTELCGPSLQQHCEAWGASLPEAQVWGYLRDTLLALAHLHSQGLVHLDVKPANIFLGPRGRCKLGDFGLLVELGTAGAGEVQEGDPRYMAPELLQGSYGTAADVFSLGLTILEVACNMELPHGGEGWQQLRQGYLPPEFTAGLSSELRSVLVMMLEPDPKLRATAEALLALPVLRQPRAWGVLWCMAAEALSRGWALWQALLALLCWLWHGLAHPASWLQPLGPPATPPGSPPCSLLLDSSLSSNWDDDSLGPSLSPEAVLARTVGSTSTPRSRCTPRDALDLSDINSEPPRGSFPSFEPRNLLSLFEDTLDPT

TGFBR2, sequence (P37173 whole entry): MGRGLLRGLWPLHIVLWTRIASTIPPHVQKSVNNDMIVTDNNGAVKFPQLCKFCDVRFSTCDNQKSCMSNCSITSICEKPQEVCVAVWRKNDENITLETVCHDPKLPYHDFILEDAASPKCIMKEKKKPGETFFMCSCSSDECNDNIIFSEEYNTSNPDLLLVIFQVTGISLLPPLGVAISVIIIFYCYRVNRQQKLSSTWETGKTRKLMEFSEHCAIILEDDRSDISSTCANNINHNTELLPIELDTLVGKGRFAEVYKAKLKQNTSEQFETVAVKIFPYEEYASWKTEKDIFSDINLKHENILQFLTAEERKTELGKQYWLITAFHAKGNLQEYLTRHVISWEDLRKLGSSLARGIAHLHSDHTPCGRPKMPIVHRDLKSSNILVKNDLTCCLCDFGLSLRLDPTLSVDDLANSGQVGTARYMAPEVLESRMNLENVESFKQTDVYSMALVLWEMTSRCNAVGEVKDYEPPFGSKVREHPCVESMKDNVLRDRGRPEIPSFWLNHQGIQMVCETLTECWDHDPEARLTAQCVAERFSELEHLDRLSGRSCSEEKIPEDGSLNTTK
T2 sequence (P68400 whole entry): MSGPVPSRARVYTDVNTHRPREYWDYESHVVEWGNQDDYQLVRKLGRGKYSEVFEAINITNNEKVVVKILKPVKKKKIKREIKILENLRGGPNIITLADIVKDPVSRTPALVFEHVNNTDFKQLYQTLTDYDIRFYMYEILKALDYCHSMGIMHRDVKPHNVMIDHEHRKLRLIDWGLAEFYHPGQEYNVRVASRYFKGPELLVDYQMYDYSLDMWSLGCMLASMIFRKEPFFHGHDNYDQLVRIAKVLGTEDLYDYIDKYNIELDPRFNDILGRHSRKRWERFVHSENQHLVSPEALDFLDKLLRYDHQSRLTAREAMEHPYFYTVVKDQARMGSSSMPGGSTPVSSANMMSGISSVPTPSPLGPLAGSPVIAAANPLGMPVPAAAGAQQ
TTBK1, sequence (Q5TCY1 whole entry): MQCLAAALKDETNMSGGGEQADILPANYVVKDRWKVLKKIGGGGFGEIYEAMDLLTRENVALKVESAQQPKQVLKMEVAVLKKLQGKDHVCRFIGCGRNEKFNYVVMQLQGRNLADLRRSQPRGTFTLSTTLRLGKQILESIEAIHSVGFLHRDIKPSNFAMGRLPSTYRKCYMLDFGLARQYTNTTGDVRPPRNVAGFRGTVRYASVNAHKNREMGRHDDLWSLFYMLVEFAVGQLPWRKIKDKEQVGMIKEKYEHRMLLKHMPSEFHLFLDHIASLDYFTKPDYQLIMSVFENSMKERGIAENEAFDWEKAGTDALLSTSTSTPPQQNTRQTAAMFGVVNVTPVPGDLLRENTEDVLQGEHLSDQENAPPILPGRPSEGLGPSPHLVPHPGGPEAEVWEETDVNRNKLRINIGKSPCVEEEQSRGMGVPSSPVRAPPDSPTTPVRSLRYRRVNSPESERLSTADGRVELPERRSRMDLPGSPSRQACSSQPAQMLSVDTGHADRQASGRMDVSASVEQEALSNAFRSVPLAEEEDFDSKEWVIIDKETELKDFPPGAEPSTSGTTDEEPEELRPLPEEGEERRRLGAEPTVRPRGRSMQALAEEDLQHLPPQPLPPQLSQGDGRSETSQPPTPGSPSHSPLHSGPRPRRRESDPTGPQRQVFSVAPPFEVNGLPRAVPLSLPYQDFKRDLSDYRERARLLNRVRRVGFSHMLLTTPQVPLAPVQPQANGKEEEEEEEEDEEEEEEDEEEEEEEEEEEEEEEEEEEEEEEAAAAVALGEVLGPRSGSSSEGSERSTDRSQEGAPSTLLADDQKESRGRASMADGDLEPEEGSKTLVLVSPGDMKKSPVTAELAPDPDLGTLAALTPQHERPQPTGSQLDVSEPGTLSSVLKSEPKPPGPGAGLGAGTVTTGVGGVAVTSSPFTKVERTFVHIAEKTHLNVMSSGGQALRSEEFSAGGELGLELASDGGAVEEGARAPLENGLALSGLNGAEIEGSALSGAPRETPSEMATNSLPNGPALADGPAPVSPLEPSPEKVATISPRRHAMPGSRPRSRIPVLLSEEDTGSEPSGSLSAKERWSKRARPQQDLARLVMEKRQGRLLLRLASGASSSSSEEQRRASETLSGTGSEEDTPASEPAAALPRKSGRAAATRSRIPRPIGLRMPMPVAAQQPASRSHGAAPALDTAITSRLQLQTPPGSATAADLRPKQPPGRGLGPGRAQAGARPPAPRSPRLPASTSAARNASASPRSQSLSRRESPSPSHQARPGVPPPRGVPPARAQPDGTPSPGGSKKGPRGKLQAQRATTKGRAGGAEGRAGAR
COT1/MAP3K8, sequence (P41279 whole entry): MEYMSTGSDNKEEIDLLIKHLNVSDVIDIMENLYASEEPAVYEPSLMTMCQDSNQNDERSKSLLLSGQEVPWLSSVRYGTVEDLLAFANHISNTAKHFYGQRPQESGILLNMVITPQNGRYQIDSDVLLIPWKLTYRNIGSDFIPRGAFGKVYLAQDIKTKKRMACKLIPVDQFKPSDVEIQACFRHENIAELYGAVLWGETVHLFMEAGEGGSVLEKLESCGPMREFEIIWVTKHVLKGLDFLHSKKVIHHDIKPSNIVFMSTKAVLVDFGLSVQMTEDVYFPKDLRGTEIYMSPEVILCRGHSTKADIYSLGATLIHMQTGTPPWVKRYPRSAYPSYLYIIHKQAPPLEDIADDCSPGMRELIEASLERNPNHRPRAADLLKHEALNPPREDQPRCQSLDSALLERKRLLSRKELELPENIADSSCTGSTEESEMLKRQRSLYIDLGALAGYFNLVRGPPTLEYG
HPK1/MAP4K1, sequence (Q92918 whole entry): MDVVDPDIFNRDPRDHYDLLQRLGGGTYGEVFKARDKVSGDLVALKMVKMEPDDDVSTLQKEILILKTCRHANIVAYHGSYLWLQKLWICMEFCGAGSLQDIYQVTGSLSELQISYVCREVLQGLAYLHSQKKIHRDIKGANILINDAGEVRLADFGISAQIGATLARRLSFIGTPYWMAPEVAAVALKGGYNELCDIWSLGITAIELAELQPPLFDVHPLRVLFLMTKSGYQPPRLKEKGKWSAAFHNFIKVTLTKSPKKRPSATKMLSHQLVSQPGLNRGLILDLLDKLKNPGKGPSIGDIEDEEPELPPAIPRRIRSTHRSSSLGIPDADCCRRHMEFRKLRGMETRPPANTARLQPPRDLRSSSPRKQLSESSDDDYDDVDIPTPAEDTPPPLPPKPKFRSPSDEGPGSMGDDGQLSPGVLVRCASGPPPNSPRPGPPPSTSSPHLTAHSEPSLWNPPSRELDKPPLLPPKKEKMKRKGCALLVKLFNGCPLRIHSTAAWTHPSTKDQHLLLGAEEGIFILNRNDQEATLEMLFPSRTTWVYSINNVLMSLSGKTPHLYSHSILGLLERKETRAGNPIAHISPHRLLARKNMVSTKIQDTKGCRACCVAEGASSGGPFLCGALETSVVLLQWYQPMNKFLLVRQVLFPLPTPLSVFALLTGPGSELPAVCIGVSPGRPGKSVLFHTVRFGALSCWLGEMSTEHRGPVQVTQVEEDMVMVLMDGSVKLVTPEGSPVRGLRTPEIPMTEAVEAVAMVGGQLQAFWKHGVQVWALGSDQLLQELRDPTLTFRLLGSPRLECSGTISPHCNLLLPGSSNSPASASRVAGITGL
T5 sequence (P27361 whole entry): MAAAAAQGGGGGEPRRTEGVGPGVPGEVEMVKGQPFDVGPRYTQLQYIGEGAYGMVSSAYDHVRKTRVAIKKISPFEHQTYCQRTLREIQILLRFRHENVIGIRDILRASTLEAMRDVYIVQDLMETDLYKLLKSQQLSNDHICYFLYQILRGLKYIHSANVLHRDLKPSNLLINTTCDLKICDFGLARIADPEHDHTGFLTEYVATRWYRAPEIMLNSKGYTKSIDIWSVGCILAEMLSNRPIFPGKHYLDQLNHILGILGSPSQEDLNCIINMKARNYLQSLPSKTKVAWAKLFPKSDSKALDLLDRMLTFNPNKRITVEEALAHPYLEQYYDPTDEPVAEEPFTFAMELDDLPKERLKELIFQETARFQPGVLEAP
LOK/STK10, sequence (O94804 whole entry): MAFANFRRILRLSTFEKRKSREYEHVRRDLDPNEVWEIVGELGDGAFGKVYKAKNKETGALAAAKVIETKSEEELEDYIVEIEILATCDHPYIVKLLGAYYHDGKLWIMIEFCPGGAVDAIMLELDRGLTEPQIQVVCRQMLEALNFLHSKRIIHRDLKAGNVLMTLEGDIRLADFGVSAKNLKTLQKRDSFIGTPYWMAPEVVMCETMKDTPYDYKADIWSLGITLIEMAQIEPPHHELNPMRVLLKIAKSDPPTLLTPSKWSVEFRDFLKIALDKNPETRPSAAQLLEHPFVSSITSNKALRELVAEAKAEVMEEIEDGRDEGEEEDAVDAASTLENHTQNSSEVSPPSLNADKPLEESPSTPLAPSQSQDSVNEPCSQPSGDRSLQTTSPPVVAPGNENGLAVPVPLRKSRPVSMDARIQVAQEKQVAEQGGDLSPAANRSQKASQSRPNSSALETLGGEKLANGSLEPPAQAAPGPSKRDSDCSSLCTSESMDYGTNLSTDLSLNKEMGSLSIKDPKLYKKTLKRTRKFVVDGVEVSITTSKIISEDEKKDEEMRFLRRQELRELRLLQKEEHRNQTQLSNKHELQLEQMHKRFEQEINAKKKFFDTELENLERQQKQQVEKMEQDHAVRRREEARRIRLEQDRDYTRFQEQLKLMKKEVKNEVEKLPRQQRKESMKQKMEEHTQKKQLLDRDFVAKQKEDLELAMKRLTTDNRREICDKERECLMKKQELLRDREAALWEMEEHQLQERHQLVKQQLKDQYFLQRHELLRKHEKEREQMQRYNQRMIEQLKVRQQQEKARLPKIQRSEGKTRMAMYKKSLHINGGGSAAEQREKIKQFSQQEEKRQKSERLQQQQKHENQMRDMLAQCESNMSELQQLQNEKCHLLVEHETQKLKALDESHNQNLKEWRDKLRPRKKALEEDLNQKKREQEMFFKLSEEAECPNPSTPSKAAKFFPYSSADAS

SMILES: O=C1Nc2ccc(I)cc2/C1=C/c1cc(Br)c(O)c(Br)c1 [GW5074]
- IC50 (ARAF): 0.0151 µM
- IC50 (CK2a): 0.231 µM
- IC50 (ZAK/MLTK): 3.11 µM
- IC50 (DYRK4): 1.61 µM

SMILES: Cn1cc(C2=C(c3cn(CCCSC(=N)N)c4ccccc34)C(=O)NC2=O)c2ccccc21 [RO-31-8220]
- IC50 (VRK2): 5.73 µM
- IC50 (LOK/STK10): 0.141 µM
- IC50 (HIPK1): 3.06 µM
- IC50 (HPK1/MAP4K1): 0.051 µM
- IC50 (COT1/MAP3K8): 10.2 µM

SMILES: CN[C@@H]1C[C@H]2O[C@@](C)([C@@H]1OC)n1c3ccccc3c3c4c(c5c6ccccc6n2c5c31)C(=O)NC4 [STAUROSPORINE]
- IC50 (PKMYT1): 0.0104 µM

Next, values leading:

- IC50 (TGFBR2): 0.0548 µM
SMILES: c1ccc2c(-c3cnn4cc(-c5ccc(N6CCNCC6)cc5)cnc34)ccnc2c1 [LDN193189]

- IC50 (TTBK1): 1.31e-05 M
- IC50 (TTBK2): 5.47 µM
SMILES: Oc1ccc(-c2nc(-c3ccncc3)c(-c3ccc(F)cc3)[nH]2)cc1 [SB202190]

- IC50 (ERK1): 0.00934 µM
SMILES: O=C(Nc1ccc2[nH]nc(-c3ccncc3)c2c1)[C@@H]1CCN(CC(=O)N2CCN(c3ccc(-c4ncccn4)cc3)CC2)C1 [SCH772984]
